Legend:
RBD/ACE2 interaction = target: T1, RBD/ACE2 interaction (Homo sapiens, UniProt Q9BYF1); format: binding
T1 construct: expressed in transfected cells; host or cells: HEK293

[1] = test system: SARS-CoV-2 pseudovirus entry into HEK293 cells expressing human ACE2; format: cell-based
HEK293 cells = details: melatonin at 10 and 100 μM, FIG. 1B

T1 sequence (Q9BYF1 18-805): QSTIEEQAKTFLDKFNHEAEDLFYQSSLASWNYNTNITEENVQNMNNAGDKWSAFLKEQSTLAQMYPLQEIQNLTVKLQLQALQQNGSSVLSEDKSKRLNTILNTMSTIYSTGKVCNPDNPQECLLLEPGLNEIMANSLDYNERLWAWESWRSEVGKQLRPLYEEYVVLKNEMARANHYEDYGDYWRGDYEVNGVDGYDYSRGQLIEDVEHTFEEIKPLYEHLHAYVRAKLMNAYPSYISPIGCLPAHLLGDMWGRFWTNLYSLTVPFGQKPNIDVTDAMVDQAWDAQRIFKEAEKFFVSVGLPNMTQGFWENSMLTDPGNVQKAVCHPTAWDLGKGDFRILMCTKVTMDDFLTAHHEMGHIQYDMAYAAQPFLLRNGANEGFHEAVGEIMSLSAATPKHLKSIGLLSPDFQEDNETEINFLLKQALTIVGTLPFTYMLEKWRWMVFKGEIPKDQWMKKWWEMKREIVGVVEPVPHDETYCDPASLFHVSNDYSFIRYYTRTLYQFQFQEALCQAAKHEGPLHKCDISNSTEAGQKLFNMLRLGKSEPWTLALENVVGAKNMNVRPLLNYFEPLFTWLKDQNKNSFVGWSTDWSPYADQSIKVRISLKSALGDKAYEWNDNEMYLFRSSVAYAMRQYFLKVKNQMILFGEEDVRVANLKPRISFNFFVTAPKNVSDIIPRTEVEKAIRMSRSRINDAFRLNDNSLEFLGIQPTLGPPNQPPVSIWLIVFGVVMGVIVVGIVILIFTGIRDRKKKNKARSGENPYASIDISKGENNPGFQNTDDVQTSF

Structure (SMILES): COc1ccc2[nH]cc(CCNC(C)=O)c2c1 [melatonin, Melatonin]
- binding of RBD-d2 of the SARS-CoV-2 Spike protein to Lumi4-Tb-labeled SNAP-tagged human ACE2 (RBD/ACE2 interaction): inhibits
- infection by the SARS-CoV-2 pseudovirus [1]: inhibited
- cell viability (HEK293 cells): without affecting cell viability

— patent US20230172906A1, “METHOD TO TREAT VIRAL INFECTION INDUCED BY A CORONAVIRUS” (priority 2020, published 2023)
